Assay results taken from BindingDB's records for doi:10.1021/acs.jmedchem.9b01283 (Pharmaxis, 2019).

Target: Diamine oxidase AOC1 (Homo sapiens)
Assay: Inhibition of recombinant human DAO using putrescine as substrate preincubated with enzyme for 30 mins followed by substrate addition and measured every 2.5 mins for 30 mins by Amplex-Red oxidation assay

Structure (SMILES)	IC50 [µM]
Cc1c(-c2cccc(S(=O)(=O)N(C)C)c2)c2cc(C(=O)O)ccc2n1CC(F)=CCN	> 10
Cc1c(-c2cccc(S(=O)(=O)N(C)C)c2)c2ccccc2n1CC(F)=CCN	3.98
